pEC50: −log10 of the molar value. Like-named read-outs stand apart in the source and are kept apart here.
Test system: HT-29 cells
Assay: Necroptosis assay (TNF-α/Smac mimetic/z-VAD, TSZ-induced) in HT-29 cells
Format: cell-based, human
Description: Methods: HT-29 cells were cultured in McCoy's 5 A culture medium (Invitrogen). On day one, HT-29 cells were plated in 96-well assay plates at density of 2,500-3,500 cells per well. On day two, necrosis were induced by adding 20 ng/ml TNF-α (T), 100 nM Smac mimetic (S), and […] z-VAD (Z). At the same time, 10 mM compound from a chemical library of ˜200,000 compounds was delivered into each well. After 24 hrs treatment, cell viability was determined by measuring ATP level using the Cell Titer-Glo Luminescent Cell Viability Assay kit. A CellTiter-Glo Assay (Promega) was performed according to the manufacturer's instructions. Luminescence was recorded with a PerkinElmer EnSpire Multimode Plate Reader. Survived cells were normalized to those cells treated with DMSO. RIPA-56 was used as a positive control for screening necroptosis inhibitors. Data are represented as mean±standard deviation of duplicates.
In previous work, we performed a cell-based high-throughput screen to identify necroptosis inhibitors using a chemical library of ˜200,000 compounds and identified multiple compounds that protected human colorectal adenocarcinoma (HT-29) cells from TNF-α/Smac mimetic/Z-VAD-fmk (TSZ)-induced necroptosis.^[4]
The anti-necroptosis potency of compounds 7-12 and 14-18 was evaluated in the HT-29 cell line; the EC50 values are shown in Table B.
[a] Necroptosis was induced in HT-29 cells for 24 h; the EC50 values given here are the mean values of at least three independent analyses.

[1] = Series 1 (Table 1) compounds 1-146, HT-29 cells, TNF-α/Smac mimetic/z-VAD, 24 hrs, cell viability by ATP level, read-out: Series 1 compound necroptosis activity
[2] = Homo sapiens, Series 1 (Table 1) compounds 1-146, HT-29 cells, TNF-α/Smac mimetic/z-VAD, 24 hrs, cell viability by ATP level, read-out: Series 1 compound necroptosis activity
[3] = Series 1 (Table 1) compounds 147-176, activity extrapolated, read-out: Series 1 compound necroptosis activity (extrapolated)
[4] = Homo sapiens, Series 2 (Table 2) compounds, HT-29 necroptosis assay, read-out: Series 2 compound necroptosis activity

`Cn1c(=O)c2c(nc(S(=O)(=O)Cc3ccc(F)cc3)n2C)n(C)c1=O` [Compound 28, 8-(4-fluorobenzylsulfonyl)-1,3,7-trimethyl-1H-purine-2,6(3H,7H)-dione] gave a pEC50 [1] of 3.00 to 6.00.
`COc1ccccc1CS(=O)(=O)c1nc2c(c(=O)n(C)c(=O)n2C)n1C` [Compound 35, 8-(2-methoxybenzylsulfonyl)-1,3,7-trimethyl-1H-purine-2,6(3H,7H)-dione] gave a pEC50 [1] of 3.00 to 6.00.
With `Cn1c(=O)c2c(nc(S(=O)(=O)Cc3ccccc3F)n2C)n(C)c1=O` [Compound 26, 8-(2-fluorobenzylsulfonyl)-1,3,7-trimethyl-1H-purine-2,6(3H,7H)-dione] the pEC50 [1] was 3.00 to 6.00.
Compound `Cn1c(=O)c2c(nc(S(C)(=O)=O)n2C)n(CC#N)c1=O` [Compound 107, 2-(1,7-dimethyl-8-(methylsulfonyl)-2,6-dioxo-1H-purin-3(2H,6H,7H)-yl)acetonitrile] has a pEC50 [2] of 4.00 to 6.00.
`CN(C)S(=O)(=O)c1nc2c(c(=O)n(C)c(=O)n2CC#Cc2cccc(O)c2)n1C` [Compound 158] gave a pEC50 [3] of 3.00 to 6.00.
Compound `Cn1c(=O)c2c(nc(S(C)(=O)=O)n2C)n(CC#Cc2ccc3c(c2)NCC3)c1=O` [Compound 171] has a pEC50 [3] of 3.00 to 6.00.
`Cn1c(=O)c2c(nc(S(C)(=O)=O)n2C)n(CC#Cc2cc(N)cc(Br)c2)c1=O` [Compound 168] showed a pEC50 [3] of 3.00 to 6.00.
`COc1ccc(OC)c(CS(=O)(=O)c2nc3c(c(=O)n(C)c(=O)n3C)n2C)c1` [Compound 58, 8-(2,5-dimethoxybenzylsulfonyl)-1,3,7-trimethyl-1H-purine-2,6(3H,7H)-dione] was tested, and the pEC50 [2] was 5.00 to 6.00.
In the case of `Cn1c(=O)c2c(nc(S(=O)(=O)Cc3ccccc3C#N)n2C)n(C)c1=O` [Compound 42, 2-((1,3,7-trimethyl-2,6-dioxo-2,3,6,7-tetrahydro-1H-purin-8-ylsulfonyl)methyl)benzonitrile], the pEC50 [1] was 3.00 to 6.00.
`CCCn1c(=O)n(C)c(=O)c2c1nc(S(C)(=O)=O)n2C` [Compound 101, 1,7-dimethyl-8-(methylsulfonyl)-3-propyl-1H-purine-2,6(3H,7H)-dione] was tested, and the pEC50 [2] was 4.00 to 6.00.
Compound `Cn1c(=O)c2c(nc(S(=O)(=O)Cc3ccc(Br)cc3)n2C)n(C)c1=O` [Compound 34, 8-(4-bromobenzylsulfonyl)-1,3,7-trimethyl-1H-purine-2,6(3H,7H)-dione] has a pEC50 [1] of 3.00 to 6.00.
For `CCCS(=O)(=O)c1nc2c(c(=O)n(C)c(=O)n2C)n1C` [Compound 10, 1,3,7-trimethyl-8-(propylsulfonyl)-1H-purine-2,6(3H,7H)-dione], the pEC50 [2] was 4.00 to 6.00.
`Cn1c(=O)c2c(nc(S(=O)(=O)CC3CC3)n2C)n(Cc2ccc(Cl)cc2)c1=O` [Compound 138, 3-(4-chlorobenzyl)-8-((cyclopropylmethyl)sulfonyl)-1,7-dimethyl-1H-purine-2,6(3H,7H)-dione] gave a pEC50 [2] of 4.00 to 6.00.
`CNc1cc(C#CCn2c(=O)n(C)c(=O)c3c2nc(S(C)(=O)=O)n3C)ccc1N1CCOCC1` [Compound 174] showed a pEC50 [3] of 3.00 to 6.00.
`Cn1c(=O)c2c(nc([S+](C)[O-])n2C)n(CC#Cc2cc(NC(=O)C3CC3)cc(C(F)(F)F)c2)c1=O` (stereo not drawn) [Compound 49] showed a pEC50 [4] of under 5.00.
Work on `Cn1c(=O)c2c(nc(S(=O)(=O)Cc3cccc(F)c3)n2C)n(C)c1=O` [Compound 27, 8-(3-fluorobenzylsulfonyl)-1,3,7-trimethyl-1H-purine-2,6(3H,7H)-dione] yielded a pEC50 [1] of 3.00 to 6.00.
`Cn1c(=O)c2c(nc(S(C)(=O)=O)n2CC(N)=O)n(C)c1=O` [Compound 86, 2-(1,3-dimethyl-8-(methylsulfonyl)-2,6-dioxo-2,3-dihydro-1H-purin-7(6H)-yl)acetamide] showed a pEC50 [1] of 3.00 to 6.00.
`COCC(=O)Nc1cc(C#CCn2c(=O)n(C)c(=O)c3c2nc(S(C)(=O)=O)n3C)cc(NC(=O)C2CC2)c1` [Compound 38] showed a pEC50 [4] of 7.00 to 9.00.
With `Cn1c(=O)c2c(nc(S(C)(=O)=O)n2C)n(CC#Cc2ccc3cc[nH]c3c2)c1=O` [Compound 163] the pEC50 [3] was 3.00 to 6.00.
Work on `CCn1c(=O)c2c(nc(S(C)(=O)=O)n2C)n(C)c1=O` [Compound 89, ethyl-3,7-dimethyl-8-(methylsulfonyl)-1H-purine-2,6(3H,7H)-dione] yielded a pEC50 [1] of 3.00 to 6.00.
In the case of `CCCn1c(=O)c2c(nc(S(C)(=O)=O)n2C)n(C)c1=O` [Compound 90, 3,7-dimethyl-8-(methylsulfonyl)-1-propyl-1H-purine-2,6(3H,7H)-dione], the pEC50 [1] was 3.00 to 6.00.
Compound `Cn1c(=O)c2c(nc(S(=O)(=O)CC3CC3)n2C)n(Cc2ccccn2)c1=O` [Compound 142, 8-((cyclopropylmethyl)sulfonyl)-1,7-dimethyl-3-(pyridin-2-ylmethyl)-1H-purine-2,6(3H,7H)-dione] has a pEC50 [1] of 3.00 to 6.00.
In the case of `Cn1c(=O)c2c(nc(S(=O)(=O)CCc3ccccc3)n2C)n(CC#Cc2ccc3nc[nH]c3c2)c1=O` [Compound 164], the pEC50 [3] was 3.00 to 6.00.
`Cn1c(=O)c2c(nc(S(=O)(=O)Cc3cccc4ccccc34)n2C)n(C)c1=O` [Compound 24, 1,3,7-trimethyl-8-(naphthalen-1-ylmethylsulfonyl)-1H-purine-2,6(3H,7H)-dione] showed a pEC50 [1] of 3.00 to 6.00.
`Cn1c(=O)c2c(nc(S(=O)(=O)Cc3cccnc3)n2C)n(C)c1=O` [Compound 50, 1,3,7-trimethyl-8-(pyridin-3-ylmethylsulfonyl)-1H-purine-2,6(3H,7H)-dione] gave a pEC50 [1] of 3.00 to 6.00.
Compound `COc1cccc(CS(=O)(=O)c2nc3c(c(=O)n(C)c(=O)n3C)n2C)c1OC` [Compound 61, 8-(2,3-dimethoxybenzylsulfonyl)-1,3,7-trimethyl-1H-purine-2,6(3H,7H)-dione] has a pEC50 [1] of 3.00 to 6.00.
`Cn1c(=O)c2c(nc(S(=O)(=O)CC3CC3)n2C)n(CC#Cc2ccnc(NC(=O)C3CC3)c2)c1=O` [Compound 31] showed a pEC50 [4] of 7.00 to 9.00.
`CNc1cc(C#CCn2c(=O)n(C)c(=O)c3c2nc(S(=O)(=O)Cc2cc(OC)ccc2OC)n3C)ccn1` [Compound 127, 8-((2,5-dimethoxybenzyl)sulfonyl)-1,7-dimethyl-3-(3-(2-(methylamino)pyridin-4-yl)prop-2-yn-1-yl)-3,7-dihydro-1H-purine-2,6-dione] gave a pEC50 [2] of 5.00 to 6.00.
Work on `CC[S+]([O-])c1nc2c(c(=O)n(C)c(=O)n2C)n1C` (stereo not drawn) [Compound 6, 8-(ethylsulfinyl)-1,3,7-trimethyl-1H-purine-2,6(3H,7H)-dione] yielded a pEC50 [1] of 3.00 to 6.00.
`COc1cc(CS(=O)(=O)c2nc3c(c(=O)n(C)c(=O)n3C)n2C)cc(OC)c1` [Compound 59, 8-(3,5-dimethoxybenzylsulfonyl)-1,3,7-trimethyl-1H-purine-2,6(3H,7H)-dione] showed a pEC50 (read-out: Series 1 compound necroptosis activity) of 3.00 to 6.00.
In the case of `Cn1c(=O)c2c(nc(S(=O)(=O)Cc3ccccc3Br)n2C)n(C)c1=O` [Compound 32, 8-(2-bromobenzylsulfonyl)-1,3,7-trimethyl-1H-purine-2,6(3H,7H)-dione], the pEC50 [1] was 3.00 to 6.00.
Work on `COc1ccc(CS(=O)(=O)c2nc3c(c(=O)n(C)c(=O)n3C)n2C)cc1` [Compound 37, 8-(4-methoxybenzylsulfonyl)-1,3,7-trimethyl-1H-purine-2,6(3H,7H)-dione] yielded a pEC50 [1] of 3.00 to 6.00.
Compound `CCCC(=O)Nc1cccc(C#CCn2c(=O)n(C)c(=O)c3c2nc(S(=O)(=O)CC2CC2)n3C)c1` [Compound 161] has a pEC50 [3] of 3.00 to 6.00.
In the case of `Cc1c2c(=O)n(C)c(=O)n(C)c2nn1S(C)(=O)=O` [Compound 145, 3,5,7-trimethyl-2-(methylsulfonyl)-2H-pyrazolo[3,4-d]pyrimidine-4,6(5H,7H)-dione], the pEC50 [1] was 3.00 to 6.00.
With `C=CC(=O)Nc1cccc(C#CCn2c(=O)n(C)c(=O)c3c2nc(S(=O)(=O)CCO)n3C)c1` [Compound 159] the pEC50 [3] was 3.00 to 6.00.
In the case of `CCn1c(=O)n(C)c(=O)c2c1nc(S(C)(=O)=O)n2C` [Compound 100, 3-ethyl-1,7-dimethyl-8-(methylsulfonyl)-1H-purine-2,6(3H,7H)-dione], the pEC50 [2] was 4.00 to 6.00.
For `COCCOCCNc1cccc(C#CCn2c(=O)n(C)c(=O)c3c2nc(S(C)(=O)=O)n3C)c1` [Compound 12], the pEC50 [4] was 7.00 to 9.00.
`Cn1c(=O)c2c(nc(S(=O)(=O)CC3CC3)n2C)n(CC#Cc2cc(NC(=O)CN3CCOCC3)ccc2Cl)c1=O` [Compound 22] was tested, and the pEC50 [4] was 7.00 to 9.00.
`Cn1c(=O)c2c(nc(S(=O)(=O)c3ccccc3)n2C)n(C)c1=O` [Compound 20, 1,3,7-trimethyl-8-(phenylsulfonyl)-1H-purine-2,6(3H,7H)-dione] gave a pEC50 [1] of 3.00 to 6.00.
`Cn1c(=O)c2c(nc(S(C)(=O)=O)n2C)n(CC#Cc2cccc(NCCN3CCOCC3)c2)c1=O` [Compound 14] showed a pEC50 [4] of 7.00 to 9.00.
Compound `COc1cc(C#CCn2c(=O)n(C)c(=O)c3c2nc(S(C)(=O)=O)n3C)cc(NCCN2CCOCC2)c1` [Compound 21] has a pEC50 [4] of 7.00 to 9.00.
In the case of `CCn1c(S(=O)(=O)CC2CC2)nc2c1c(=O)n(C)c(=O)n2C` [Compound 82], the pEC50 [2] was 4.00 to 6.00.
In the case of `Cn1c(=O)c2c(nc(S(=O)(=O)CC3CC3)n2C)n(CC#Cc2cc(NC(=O)CN3CCOCC3)cc(NC(=O)CN3CCOCC3)c2)c1=O` [Compound 28], the pEC50 [4] was 7.00 to 9.00.
`Cn1c(S(C)(=O)=O)nc2c1c(=O)n(-c1ccccc1)c(=O)n2C` [Compound 92, 3,7-dimethyl-8-(methylsulfonyl)-1-phenyl-1H-purine-2,6(3H,7H)-dione] showed a pEC50 [1] of 3.00 to 6.00.
With `CCCOc1ccc(OC)c(CS(=O)(=O)c2nc3c(c(=O)n(C)c(=O)n3C)n2C)c1` [Compound 68, 8-(2-methoxy-5-propoxybenzylsulfonyl)-1,3,7-trimethyl-1H-purine-2,6(3H,7H)-dione] the pEC50 [1] was 3.00 to 6.00.

— patent US11666577B2 (National Institute of Biological Sciences, Beijing, priority 2018, dated 2023)
